“And” between values parts separate entries of the source, which are not always exact repeats. Equal entries are not always repeated.
What was measured:
[1] = tested on: histone deacetylase (HDAC) in PANC-1 cells; test: Immunoblotting assay of histone acetylation; format: cell-based
Description: PANC-1 cells were untreated or treated with scriptaid (2 μg/ml) or TSA (0.1 or 0.32 μg/ml). Acetylated histones were detected by anti-human acetyl-lysine antibody immunoblot. Immunoblotting Assay of Histone Acetylation. PANC-1 cells were treated with 2 μg/ml of scriptaid (ChemBridge), 0.1 μg/ml, or 0.32 μg/ml of trichostatin A (Sigma, St. Louis, Mo.) for 18 hours in culture media. Treated and untreated cells were harvested with trypsin-EDTA (Life Technologies, Inc.), washed with phosphate-buffered saline (Life Technologies, Inc.), and resuspended in a protein sample buffer. Protein concentration was determined by BCA protein assay reagents (Pierce, Rockford, Ill.). Fifty micrograms of proteins from each sample was loaded on a 12% denaturing polyacrylamide gel. Proteins were subsequently transferred to a nylon membrane (Imobilon P, Millipore, Burlington, Mass.) using Milliblot-Graphite Electroblotter I (Millipore). The nylon membrane was incubated with rabbit anti-human acetyl-lysine antibody (#06-933, Upstate Biotechnology, Waltham, Mass.) at 1:1000 dilution, followed by goat anti-rabbit antibody coupled to horseradish peroxidase (Pierce) at 1:2000 dilution, developed with SuperSignal substrates (Pierce), and detected by film (BioMax, Kodak, Rochester, N.Y.).

[2] = tested on: PANC-1 cells containing the stably integrated p6SBE-luc; test: TGFβ/Smad4 signal transduction assay with stably integrated p6SBE-luc (FIGS. 6B, 6C); format: cell-based; conditions: absence or presence of TGFβ 1 ng/ml
Description: FIGS. 6A-6C. Proportional effects of scriptaid and TSA on the TGFβ/Smad4 signal transduction assay. FIG. 6A, p6SBE-luc or p6MBE-luc was cotransfected with pCMV-β into PANC-1 cells. Transfected cells were untreated or treated with TGFβor/and scriptaid for 18 hours. […] Relative luciferase induction was determined after normalization to the TGFβ-non-inducible pCMV-β control, itself subject to scriptaid facilitation (see FIG. 7). Data represent averages of two experiments and SEM. FIG. 6B, total luciferase induction in PANC-1 cells containing the stably integrated p6SBE-luc after treatment with scriptaid or TSA in the absence or presence of TGFβ (1 ng/ml). FIG. 6C, relative luciferase induction in PANC-1 cells containing the stably integrated p6SBE-luc after treatment with scriptaid or TSA in the absence or presence of TGFβ (1 ng/ml ) determined after normalization to the values observed with the HDAC inhibitor alone.
Cell Lines. PANC-1 and MDA-MB-468 cell lines were purchased from ATCC (Manassas, Va.). Stable transfectants were generated by co-transfection of pcDNA3.1 (Invitrogen, Carlsbad, Calif.) and p6SBE-luc into PANC-1 cells with LipofectAMINE (Life Technologies, Inc.). Transfected cells were diluted and selected in multiple 96-well plates in the presence of 0.5 mg/ml of G418 (Life Technologies, Inc.). […]

[3] = tested on: PANC-1 and MDA-MB-468 cells; test: Survival curve, trypan-blue exclusion; format: cell-based; conditions: 18-hour incubation; for cytotoxicity (in words): at optimal concentration for transcriptional facilitation
Description: FIGS. 5A to 5B. Effects of compounds on cell survival. […] Data represent averages of two to four experiments and SEM. FIG. 5A, scriptaid. FIG. 5B, TSA.
Survival Curve. Equal numbers of cells were plated in six-well plates in the absence or presence of scriptaid or TSA at different concentrations. After 18 hours of incubation, cell numbers were determined by trypan-blue exclusion. Percent survival of the treated cells was calculated in comparison to the untreated sample, which was considered to represent 100%.

[4] = tested on: p6SBE-luc, p6MBE-luc, pCMVβ, pUB6/V5-lacZ reporters in PANC-1 or MDA-MB-468 cells; test: Transient transfection reporter assay (luciferase, β-gal); format: cell-based; conditions: 18 hours; for facilitation of reporter expression after transient transfection (in words): SV40, CMV and ubiquitin c promoters, PANC-1 or MDA-MB-468
Description: FIGS. 7A-7C. Scriptaid and TSA transcriptional facilitation after transient transfection. PANC-1 or MDA-MB-468 cells were transiently transfected for 4 hours with constructs containing various promoters. Transfected cells were untreated or treated with scriptaid or TSA for 18 hours. Data represent averages of two to five experiments and SEM. FIG. 7A, SV40 promoter and luciferase reporter gene. FIG. 7B, CMV promoter and β-gal reporter gene. FIG. 7C, human ubiquitin c promoter and β-gal reporter gene.
Transfection Assay. Each transient transfection experiment was done in duplicate in six-well plates. LipofectAMINE (Life Technologies, Inc.) was used as directed by the manufacturer. The DNA-LipofectAMINE mixture was removed from cells after 4-5 hours of transfection, and culture media with or without compounds or TGFβ was then added to the cells. Sixteen to eighteen hours from the start of the transfection, cell lysates were prepared with Reporter Lysis Buffer (Promega) for luciferase and β-gal assays. Luciferase was measured using The Luciferase Assay System (Promega) and β-gal assay was performed as previously described (Dai et al., 1998). Studies of the SV40 promoter included all experiments done with p6SBE-luc, p6MBE-luc, and pGL3-control (Promega) plasmids. Studies of the CMV promoter were done using pCMVβ. (Clonetech, Palo Alto, Calif.), and those of human ubiquitin c promoter were done using pUB6/V5-lacZ (Invitrogen).

[5] = tested on: p6SBE-luc reporter construct in PANC-1 cells; test: Compound screening, luciferase activity in PANC-1 cells with stably integrated p6SBE-luc; format: cell-based; conditions: 2 μg/ml compound, 16-18 hours, initial library screen
Description: (§1) Cell Lines. PANC-1 and MDA-MB-468 cell lines were purchased from ATCC (Manassas, Va.). Stable transfectants were generated by co-transfection of pcDNA3.1 (Invitrogen, Carlsbad, Calif.) and p6SBE-luc into PANC-1 cells with LipofectAMINE (Life Technologies, Inc.). Transfected cells were diluted and selected in multiple 96-well plates in the presence of 0.5 mg/ml of G418 (Life Technologies, Inc.). Single clones were expanded and tested for basal luciferase expression and TGFβ inducibility. One clone was chosen on basis of high (6 to 8-fold) induction of luciferase by 0.5 ng/ml TGFβ (R&D Systems, Minneapolis, Minn.).
Compound Screening. Each compound of the library (DIVERSet, ChemBridge, San Diego, Calif.) was dissolved and diluted in DMSO at 1 mg/ml. Cells were plated in 96-well cluster plates (Corning, Cambridge, Mass.) and incubated with each compound, after further dilution in culture media to the final concentration of 2 μg/ml, for 16-18 hours. Luciferase activity was measured upon addition of Steady-Glo substrate (Promega). Up to sixteen 96-well plates could be assembled in a Wallac Trilux photodetector (Wallac, Gaithersburg, Md.) for measurement. All readouts from each experiment were compared to the control wells, and a number reflecting the relative increase in luciferase activity was calculated for each chemical using Excel (Microsoft, Redmond, Wash.) spreadsheets. […]

[6] = tested on: PANC-1 cells having stably integrated p6SBE-luc; test: Dose response of transcriptional facilitation in stably transfected cell line (FIG. 3); format: cell-based; conditions: for transcriptional facilitation (in words): at concentrations corresponding to scriptaid; for optimal concentration for transcriptional facilitation: PANC-1 stably integrated p6SBE-luc, luciferase
Description: FIG. 3. Dose responses of TSA and scriptaid transcriptional facilitation in a stably transfected cell line. Luciferase activity was determined using PANC-1 cells having stably integrated p6SBE-luc at the indicated concentration of compounds. Data represent averages of two to three experiments and SEM.
as §1
Compound Screening. Each compound of the library (DIVERSet, ChemBridge, San Diego, Calif.) was dissolved and diluted in DMSO at 1 mg/ml. Cells were plated in 96-well cluster plates (Corning, Cambridge, Mass.) and incubated with each compound, after further dilution in culture media to the final concentration of 2 μg/ml, for 16-18 hours. Luciferase activity was measured upon addition of Steady-Glo substrate (Promega). Up to sixteen 96-well plates could be assembled in a Wallac Trilux photodetector (Wallac, Gaithersburg, Md.) for measurement. All readouts from each experiment were compared to the control wells, and a number reflecting the relative increase in luciferase activity was calculated for each chemical using Excel (Microsoft, Redmond, Wash.) spreadsheets.
The entire library, consisting of 16,320 compounds, was screened. Eleven compounds were associated with a two to five-fold induction of luciferase activity, and one with a twelve-fold activation (FIG. 1). Further studies on the latter compound (ID#217444, 6-(1,3-Dioxo-1H,3H-benzo[de]isoquinolin-2-yl)-hexanoic acid hydroxyamide, we termed scriptaid) are reported here (FIG. 2). […] The results were validated by repeated determinations in the screening assay and subsequently by a dose-response curve performed on PANC-1 cells containing stably integrated p6SBE-luc (FIG. 3).

[7] = Richon et al., 1996; cited from earlier work

In the case of `CC(/C=C/C(=O)NO)=C\[C@@H](C)C(=O)c1ccc(N(C)C)cc1` [TSA, trichostatin A], the “inhibition of endogenous histone deacetylation (in words)” value ([1]; TSA 0.1 μg/ml, compared with scriptaid 2 μg/ml and TSA 0.32 μg/ml) is reported as “less efficient”, the “effect on TGFβ-stimulated induction of integrated p6SBE-luc (in words)” value [2] is reported as “proportionally enhance the induction of an integrated p6SBE-luc construct without interfering with TGFβ-stimulated transcriptional responses” and the “cytotoxicity (in words)” value [3] is reported as “cytotoxic for two cell lines”. For the same molecule, the survival ([3]; minimal toxic concentration 0.1 μg/ml) was 85-90% and the “facilitation of reporter expression after transient transfection (in words)” value [4] was “less predictable at its optimal concentration”.

With `O=C(CCCN1C(=O)c2cccc3cccc(c23)C1=O)NO` [nullscript, 4-(1,3-Dioxo-1H,3H-benzo[de]isoquinolin-2-yl)-N-hydroxy-butyramide] the “induction of luciferase activity relative to control wells” value [5] was “did not induce”, the “transcriptional facilitation (in words)” value [6] was “inactive” and the “transcriptional facilitation (in words)” value ([6]; listed as Nullscipt) was “does not facilitate transcription”.

For `CC(=O)NCCCCCCNC(C)=O` [HMBA], the optimal concentration reported [7] is listed as 5000 µM.

For `O=C(CCCCCCC(=O)Nc1ccccc1)NO` [SAHA], the optimal concentration reported [7] is listed as 2 µM.

For `O=C(CCCCCN1C(=O)c2cccc3cccc(c23)C1=O)NO` [scriptaid, 6-(1,3-Dioxo-1H,3H-benzo[de]isoquinolin-2-yl)-hexanoic acid hydroxyamide], the “increase in histone acetylation” value ([1]; cultured cells, scriptaid 2 μg/ml, 18 hours, anti-acetyl-lysine immunoblot) was “greater than 100 fold”, the “effect on TGFβ-stimulated induction of integrated p6SBE-luc (in words)” value [2] was “proportionally enhance the induction of an integrated p6SBE-luc construct without interfering with TGFβ-stimulated transcriptional responses” and the “induction of luciferase activity relative to control wells” value [5] was “twelve-fold”. For the same molecule, the survival ([3]; at its optimal concentration for transcriptional facilitation, cell line not named) was 80%, the “cytotoxicity (in words)” value [3] was “not lethal to one cell line” and the “facilitation of reporter expression after transient transfection (in words)” value [4] was “capable of inducing high expression”. The “increase of transcription of all three reporters (p6SBE-luc, p6MBE-luc, pCMVβ)” value ([4]; transient cotransfection in PANC-1 cells) was “twelve-fold”, the “optimal concentration for transcriptional facilitation” value [6] was 6 to 8 µM and the “optimal concentration for transcriptional facilitation” value ([6]; listed as Scriptaid) was 2-2.5 μg/ml and 6-8 μM.

For `O=C(/C=C/c1cccc(C(=O)NO)c1)NO` [CBHA], the optimal concentration reported [7] is listed as 4 µM.
